Assay results published in patent publication US9169252B2 (BRISTOL-MYERS SQUIBB COMPANY, priority 2014, dated 2015).
pEC50, pIC50: −log10 of the molar value. Read-outs that look alike come from different tables or passages of the source.

Experiments:
[1] = molecular target: IRAK4 (Homo sapiens (Human), UniProt Q9NWZ3); assay: IRAK4 Inhibition Assay; type: biochemical; conditions: ATP 500 μM, read-out: IRAK4 IC50
In short: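 IRAK4 combined with fluorescent substrate and compounds, reacted 60 min at room temperature, stopped with 35 mM EDTA. Substrate and phosphorylated product separated electrophoretically on a Caliper LabChip 3000 mobility-shift reader.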

[2] = system: TLR2 induced IL-6 in peripheral blood mononuclear cells (PBMCs); assay: PBMC TLR2 Induced IL-6 Assay; type: cell-based, human; conditions: IL-6 by ELISA; for pEC50: read-out: Cell EC50; for pIC50: read-out: Cell IC50
In short: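 Lipoteichoic acid at 10 µg/ml served as TLR2 stimulus for 5 hours, following a 30-minute compound pretreatment at 37° C. Cells were Ficoll-isolated human PBMCs, 250000 cells/well, cultured in RPMI plus 10% heat-inactivated FCS.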

[3] = Homo sapiens, PBMC, human PBMCs, lipoteichoic acid stimulated
[4] = Homo sapiens, PBMC, PBMC TLR2 Induced IL-6 Assay, lipoteichoic acid stimulation
[5] = human PBMCs, lipoteichoic acid stimulated

Chain of IRAK4 (Q9NWZ3 whole entry, species assumed): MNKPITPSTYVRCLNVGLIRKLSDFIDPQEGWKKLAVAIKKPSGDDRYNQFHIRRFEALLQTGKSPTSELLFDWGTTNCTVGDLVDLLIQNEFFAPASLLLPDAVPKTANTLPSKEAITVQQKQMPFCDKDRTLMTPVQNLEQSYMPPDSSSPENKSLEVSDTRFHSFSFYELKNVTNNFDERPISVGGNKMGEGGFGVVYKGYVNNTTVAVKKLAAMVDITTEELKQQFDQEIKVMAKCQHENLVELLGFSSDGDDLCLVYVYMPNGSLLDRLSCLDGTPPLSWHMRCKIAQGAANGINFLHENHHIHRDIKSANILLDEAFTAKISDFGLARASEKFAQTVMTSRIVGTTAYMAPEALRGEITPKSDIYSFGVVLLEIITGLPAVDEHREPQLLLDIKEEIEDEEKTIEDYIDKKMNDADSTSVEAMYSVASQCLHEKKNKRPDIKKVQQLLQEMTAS

Compound `CC(C)(O)[C@H](F)CNC(=O)c1cnc(-n2ncc3cc(C#N)cnc32)cc1NCCC(F)(F)F` [Example 563, (R)-6-(5-Cyano-1H-pyrazolo[3,4-b]pyridin-1-yl)-N-(2-fluoro-3-hydroxy-3-methylbutyl)-4-((3,3,3-trifluoropropyl)amino)nicotinamide] has a pIC50 ([1]; IRAK4 0.6 nM) of 8.30 and a pEC50 [2, 3] of 6.80.

With `CC(C)(O)[C@H](F)CNC(=O)c1cnc(-n2ncc3cc(C#N)cnc32)cc1Nc1cc(-c2ccccc2)n[nH]1` [Example 412] the pIC50 ([1]; IRAK4 0.6 nM) was 8.44 and the pIC50 [2, 3] was 7.28.

In the case of `CC(C)(O)[C@H](F)CNC(=O)c1cnc(-n2ncc3cc(C#N)cnc32)cc1NCC(F)(F)F` [Example 147, (R)-6-(5-cyano-1H-pyrazolo[3,4-b]pyridin-1-yl)-N-(2-fluoro-3-hydroxy-3-methylbutyl)-4-((2,2,2-trifluoroethyl)amino)nicotinamide], the pIC50 ([1]; IRAK4 Inhibition Assay) was 7.92 and the pEC50 [2, 4] was 6.47.

In the case of `CC(C)Nc1cc(N2CCc3cc(C#N)cnc32)ncc1C(=O)NC[C@@H](F)C(C)(C)O` [Example 567], the pIC50 ([1]; IRAK4 0.6 nM) was 8.00, the pEC50 [2, 3] was 6.79 and the pIC50 [2, 3] was 6.58.

With `CC(C)(F)CCNc1cc(-n2ncc3cc(C#N)c(N)nc32)ncc1C(=O)NC[C@@H](F)C(C)(C)O` [Example 599] the pIC50 ([1]; IRAK4 0.6 nM) was 8.32 and the pIC50 [2, 3] was 6.56.

In the case of `CC(C)Nc1cc(-n2ccc3cnc(N4CC[C@H](O)C4)nc32)ncc1C(=O)NC[C@@H](F)C(C)(C)O` [Example 189, N—((R)-2-fluoro-3-hydroxy-3-methylbutyl)-6-(2-((S)-3-hydroxypyrrolidin-1-yl)-7H-pyrrolo[2,3-d]pyrimidin-7-yl)-4-(isopropylamino)nicotinamide], the pIC50 ([1]; IRAK4 Inhibition Assay) was 8.32 and the pEC50 [2, 4] was 7.12.

`CC(O)CCNc1cc(-n2ccc3cc(C#N)cnc32)ncc1C(=O)NC[C@@H](F)C(C)(C)O` (some centres unmarked) [Example 422] gave a pIC50 ([1]; IRAK4 0.6 nM) of 8.64 and a pEC50 [2, 5] of 8.40.

In the case of `C[C@@H](CO)Nc1cc(-n2ccc3cc(F)cnc32)ncc1C(=O)N[C@H]1CC[C@H](C(C)(C)O)CC1` [Example 432], the pIC50 ([1]; IRAK4 0.6 nM) was 8.68 and the pEC50 [2, 3] was 7.10.

For `CC(C)NC(=O)[C@H]1CC[C@H](Nc2cc(-n3ncc4cc(C#N)cnc43)ncc2C(=O)NC[C@@H](F)C(C)(C)O)CC1` [Example 641], the pIC50 ([1]; IRAK4 0.6 nM) was 8.19 and the pIC50 [2, 3] was 6.14.

`C[C@@H](CF)Nc1cc(-n2ccc3cc(C#N)cnc32)ncc1C(=O)NC[C@@H](F)C(C)(C)O` [Example 117, 6-(5-cyano-1H-pyrrolo[2,3-b]pyridin-1-yl)-N—((R)-2-fluoro-3-hydroxy-3-methylbutyl)-4-(((S)-1-fluoropropan-2-yl)amino)nicotinamide] showed a pIC50 ([1]; IRAK4 Inhibition Assay) of 8.62 and a pEC50 [2, 4] of 7.55.

With `CCn1nnnc1-c1ccc(Nc2cc(-n3ccc4cc(C#N)cnc43)ncc2C(=O)NC[C@@H](F)C(C)(C)O)cc1` [Example 433] the pIC50 ([1]; IRAK4 0.6 nM) was 8.39, the pEC50 [2, 3] was 6.79 and the pIC50 [2, 3] was 6.30.

In the case of `CC(C)CCNC(=O)c1cnc(-n2ncc3cc(C#N)cnc32)cc1NC(C)C` [Example 298], the pIC50 ([1]; IRAK4 Inhibition Assay) was 8.35 and the pIC50 [2, 4] was 6.85.

Work on `CC(C)(O)[C@H](F)CNC(=O)c1cnc(-n2cnc3cc(Cl)cnc32)cc1Nc1cnn(CCCF)c1` [Example 370] yielded a pIC50 ([1]; IRAK4 Inhibition Assay) of 8.59 and a pIC50 [2, 4] of 7.08.

With `CC(C)Nc1cc(-n2ccc3cc(C#N)ccc32)ncc1C(=O)NC[C@@H](F)C(C)(C)O` [Example 1, (R)-6-(5-Cyano-1H-indol-1-yl)-N-(2-fluoro-3-hydroxy-3-methylbutyl)-4-(isopropylamino)nicotinamide] the pIC50 ([1]; IRAK4 Inhibition Assay) was 8.48, the pEC50 [2, 4] was 6.05 and the pIC50 [2, 4] was 6.06.

With `CC(C)Nc1cc(-n2ncc3cc(C#N)cnc32)ncc1C(=O)NCCN1CCOCC1` [Example 204] the pIC50 ([1]; IRAK4 Inhibition Assay) was 8.31 and the pEC50 [2, 4] was 6.76.

Compound `CC(C)(C)OC(=O)N1CC(Nc2cc(-n3ccc4cc(C#N)cnc43)ncc2C(=O)NC[C@@H](F)C(C)(C)O)C1` [Example 457] has a pIC50 ([1]; IRAK4 0.6 nM) of 7.99, a pEC50 [2, 3] of 6.34 and a pIC50 [2, 3] of 5.91.

Work on `C[C@H](CF)Nc1cc(-n2ccc3cncnc32)ncc1C(=O)NC[C@@H](F)C(C)(C)O` [Example 115, N—((R)-2-fluoro-3-hydroxy-3-methylbutyl)-4-(((R)-1-fluoropropan-2-yl)amino)-6-(7H-pyrrolo[2,3-d]pyrimidin-7-yl)nicotinamide] yielded a pIC50 ([1]; IRAK4 Inhibition Assay) of 8.48 and a pEC50 [2, 4] of 7.09.

With `CC(C)CCNC(=O)c1cnc(-n2ncc3cc(C#N)cnc32)cc1NC1COC1` [Example 557] the pIC50 ([1]; IRAK4 0.6 nM) was 8.29 and the pIC50 [2, 3] was 6.32.

`CC(C)(O)[C@H](F)CNC(=O)c1cnc(-n2ncc3cc(C#N)cnc32)cc1NCC1CC1` [Example 605] gave a pIC50 ([1]; IRAK4 0.6 nM) of 8.12 and a pIC50 [2, 3] of 6.78.

Work on `CC(C)(O)[C@H](F)CNC(=O)c1cnc(-n2ncc3cc(C#N)cnc32)cc1Nc1cnn(S(C)(=O)=O)c1` [Example 385] yielded a pIC50 ([1]; IRAK4 Inhibition Assay) of 9.05 and a pIC50 [2, 4] of 7.40.

For `CCn1cc(Nc2cc(-n3cnc4cc(Cl)cnc43)ncc2C(=O)NC[C@@H](F)C(C)(C)O)cn1` [Example 361], the pIC50 ([1]; IRAK4 Inhibition Assay) was 8.54 and the pIC50 [2, 4] was 6.69.

In the case of `CC(=O)N1CCC(Nc2cc(-n3ccc4cc(C#N)cnc43)ncc2C(=O)NC[C@@H](F)C(C)(C)O)CC1` [Example 470], the pIC50 ([1]; IRAK4 0.6 nM) was 8.10 and the pEC50 [2, 3] was 6.62.

Work on `CC(C)Nc1cc(-n2ncc3cc(C#N)cnc32)ncc1C(=O)NC[C@@H](F)C(C)(C)OC(F)F` [Example 314] yielded a pIC50 ([1]; IRAK4 Inhibition Assay) of 7.86 and a pIC50 [2, 4] of 6.38.

`CC(C)Nc1cc(-n2ncc3cc(C#N)cnc32)ncc1C(=O)NC1CCN(c2ncccn2)CC1` [Example 240] gave a pIC50 ([1]; IRAK4 Inhibition Assay) of 7.80 and a pEC50 [2, 4] of 6.52.

For `CC(C)Nc1cc(-n2ccc3cnc(N4CC[C@@H](O)C4)nc32)ncc1C(=O)NC[C@@H](F)C(C)(C)O` [Example 190, N—((R)-2-fluoro-3-hydroxy-3-methylbutyl)-6-(2-((R)-3-hydroxypyrrolidin-1-yl)-7H-pyrrolo[2,3-d]pyrimidin-7-yl)-4-(isopropylamino)nicotinamide], the pIC50 ([1]; IRAK4 Inhibition Assay) was 8.33 and the pEC50 [2, 4] was 6.92.

In the case of `CC(C)(O)[C@H]1CC[C@H](NC(=O)c2cnc(-n3ccc4cc(F)cnc43)cc2NC2CC2)CC1` [Example 428], the pIC50 ([1]; IRAK4 0.6 nM) was 8.34 and the pEC50 [2, 3] was 6.44.

Compound `CCCNC(=O)c1cnc(-n2ncc3cc(C#N)c(N)nc32)cc1NC(C)C` [Example 326] has a pIC50 ([1]; IRAK4 Inhibition Assay) of 7.94 and a pIC50 [2, 4] of 7.52.

`CC(C)(O)[C@H](F)CNC(=O)c1cnc(-n2ncc3cc(C#N)cnc32)cc1Nc1cccc(C#N)c1` [Example 522] was tested, and the pIC50 ([1]; IRAK4 0.6 nM) was 8.59 and the pEC50 [2, 3] was 6.75.

`CC(C)C(O)CNc1cc(-n2ncc3cc(C#N)cnc32)ncc1C(=O)NC[C@@H](F)C(C)(C)O` (some centres unmarked) [Example 597] was tested, and the pIC50 ([1]; IRAK4 0.6 nM) was 7.81 and the pIC50 [2, 3] was 6.51.

Work on `CCCOC(=O)NCc1cnc2c(ccn2-c2cc(NC(C)C)c(C(=O)NC[C@@H](F)C(C)(C)O)cn2)c1` [Example 508] yielded a pIC50 ([1]; IRAK4 0.6 nM) of 8.55 and a pIC50 [2, 3] of 6.65.

For `COC(=O)N[C@H]1CC[C@H](NC(=O)c2cnc(-n3ccc4cc(C#N)cnc43)cc2NC(C)C)CC1` [Example 97, methyl((trans)-4-(6-(5-cyano-1H-pyrrolo[2,3-b]pyridin-1-yl)-4-(isopropylamino)nicotinamido)cyclohexyl)carbamate], the pIC50 ([1]; IRAK4 Inhibition Assay) was 8.31 and the pEC50 [2, 4] was 6.97.

For `Cc1cnc2c(cnn2-c2cc(NC(C)C)c(C(=O)N[C@H]3CC[C@H](C(C)(C)O)CC3)cn2)c1` [Example 214], the pIC50 ([1]; IRAK4 Inhibition Assay) was 7.87 and the pEC50 [2, 4] was 6.68.

Work on `COc1cccc(Nc2cc(-n3ccc4cc(C#N)cnc43)ncc2C(=O)NC[C@@H](F)C(C)(C)O)c1` [Example 418] yielded a pIC50 ([1]; IRAK4 0.6 nM) of 8.36 and a pEC50 [2, 3] of 7.19.

With `CC(C)(O)[C@H](F)CNC(=O)c1cnc(-n2ncc3cc(F)cnc32)cc1NC1CCC(F)C1` (some centres unmarked) [Example 620] the pIC50 ([1]; IRAK4 0.6 nM) was 8.47 and the pEC50 [2, 5] was 6.94.

`C[C@H](F)CNc1cc(-n2ccc3cc(C#N)cnc32)ncc1C(=O)NC[C@@H](F)C(C)(C)O` [Example 507] gave a pIC50 ([1]; IRAK4 0.6 nM) of 8.85 and a pIC50 [2, 3] of 6.43.

`CC(C)(O)c1cccc(Nc2cc(-n3ccc4cc(C#N)cnc43)ncc2C(=O)NC[C@@H](F)C(C)(C)O)c1` [Example 59, (R)-6-(5-cyano-1H-pyrrolo[2,3-b]pyridin-1-yl)-N-(2-fluoro-3-hydroxy-3-methylbutyl)-4-((3-(2-hydroxypropan-2-yl)phenyl)amino) nicotinamide] was tested, and the pIC50 ([1]; IRAK4 Inhibition Assay) was 8.80 and the pEC50 [2, 4] was 6.82.

`CC(C)(O)[C@H](F)CNC(=O)c1cnc(-n2ccc3cc(C#N)cnc32)cc1Nc1cccc(S(N)(=O)=O)c1` [Example 50, (R)-6-(5-cyano-1H-pyrrolo[2,3-b]pyridin-1-yl)-N-(2-fluoro-3-hydroxy-3-methylbutyl)-4-((3-sulfamoylphenyl)amino)nicotinamide] showed a pIC50 ([1]; IRAK4 Inhibition Assay) of 8.72 and a pEC50 [2, 4] of 7.24.

`CC(C)(O)[C@H](F)CNC(=O)c1cnc(-n2ccc3cc(C#N)cnc32)cc1NC1CC1c1c[nH]cn1` (mixture of isomers) [Example 460] was tested, and the pIC50 ([1]; IRAK4 0.6 nM) was 8.48, the pEC50 [2, 3] was 7.06 and the pIC50 [2, 3] was 6.95.

Work on `CC(C)Nc1cc(-n2ncc3cc(C#N)cnc32)ncc1C(=O)N[C@H]1CC[C@H](C(C)(C)O)C1` [Example 244] yielded a pIC50 ([1]; IRAK4 Inhibition Assay) of 8.20 and a pEC50 [2, 4] of 6.59.

With `CC(C)(O)[C@H](F)CNC(=O)c1cnc(-n2ccc3cc(C#N)cnc32)cc1Nc1ccc(-n2ccnc2)cc1` [Example 471] the pIC50 ([1]; IRAK4 0.6 nM) was 8.00 and the pEC50 [2, 3] was 6.71.

Compound `CC(C)(O)[C@H]1CC[C@H](NC(=O)c2cnc(-n3ncc4cc(C#N)cnc43)cc2Nc2cnn(CC(F)F)c2)CC1` [Example 396] has a pIC50 ([1]; IRAK4 0.6 nM) of 8.07 and a pIC50 [2, 3] of 6.80.

Compound `CC(C)Nc1cc(-n2ccc3cnc(N(C)C)nc32)ncc1C(=O)NC[C@@H](F)C(C)(C)O` [Example 185, (R)-6-(2-(Dimethylamino)-7H-pyrrolo[2,3-d]pyrimidin-7-yl)-N-(2-fluoro-3-hydroxy-3-methylbutyl)-4-(isopropylamino)nicotinamide] has a pIC50 ([1]; IRAK4 Inhibition Assay) of 8.47 and a pEC50 [2, 4] of 6.46.
